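Following 48 hours of exposure in 96-well plates, responses at five concentrations were used to interpolate endpoints linearly. GI50 marks 50% less growth.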 The source made the active and inactive calls. Rule as the data show it: active = GI50 up to about 1.1 µM and inactive = higher.
Tests used:
Experiment in all cases: DTP human tumour cell line panel, 48 h
UACC-257 = test system: UACC-257
NCI-H460 = test system: NCI-H460
RPMI-8226 = test system: RPMI-8226
SNB-75 = test system: SNB-75
NCI-H23 = test system: NCI-H23
HCT-15 = test system: HCT-15
HOP-92 = test system: HOP-92
CAKI-1 = test system: CAKI-1
UACC-62 = test system: UACC-62
CCRF-CEM = test system: CCRF-CEM
K562 = test system: K562
SF-268 = test system: SF-268
SNB-19 = test system: SNB-19
SK-MEL-28 = test system: SK-MEL-28
Malme-3M = test system: Malme-3M
KM12 = test system: KM12
M14 = test system: M14
SW-620 = test system: SW-620

SMILES	GI50 (UACC-257)	GI50 (NCI-H460)	GI50 (RPMI-8226)	GI50 (SNB-75)	GI50 (NCI-H23)	GI50 (HCT-15)	GI50 (HOP-92)	GI50 (CAKI-1)	GI50 (UACC-62)	GI50 (CCRF-CEM)	GI50 (K562)	GI50 (SF-268)	GI50 (SNB-19)	GI50 (SK-MEL-28)	GI50 (Malme-3M)	GI50 (KM12)	GI50 (M14)	GI50 (SW-620)
CCc1ccc(Cc2ccc(CC)c(NC(=O)C(=O)Cc3nc4ccccc4nc3C)c2CC)c(CC)c1NC(=O)C(=O)Cc1nc2ccccc2nc1C	> 100 µM (inactive)	> 100 µM (inactive)	> 100 µM (inactive)	9.77 µM (inactive)	> 100 µM (inactive)	> 100 µM	4.02 µM (inactive)	25.4 µM (inactive)	> 100 µM (inactive)	42.7 µM (inactive)	> 100 µM (inactive)	33.3 µM (inactive)	45.1 µM (inactive)	66.7 µM (inactive)	81.3 µM (inactive)	> 100 µM (inactive)	> 100 µM (inactive)	> 100 µM (inactive)
N#CC1(N2CCCC2)CCC2(CC1)OCCO2	> 100 µM (inactive)	> 100 µM (inactive)	> 100 µM (inactive)	> 100 µM (inactive)	> 100 µM (inactive)	> 100 µM	> 100 µM (inactive)	> 100 µM (inactive)	> 100 µM (inactive)	> 100 µM (inactive)	> 100 µM (inactive)	> 100 µM (inactive)	> 100 µM (inactive)	> 100 µM (inactive)	> 100 µM (inactive)	> 100 µM (inactive)	> 100 µM (inactive)	> 100 µM (inactive)
NC(CCCNCc1ccccc1)C(=O)O (configuration not stated)	> 100 µM (inactive)	> 100 µM (inactive)	> 100 µM (inactive)	> 100 µM (inactive)	> 100 µM (inactive)	> 100 µM	> 100 µM (inactive)	> 100 µM (inactive)	> 100 µM (inactive)	> 100 µM (inactive)	> 100 µM (inactive)	> 100 µM (inactive)	> 100 µM (inactive)	> 100 µM (inactive)	> 100 µM (inactive)	> 100 µM (inactive)	> 100 µM (inactive)	> 100 µM (inactive)
CCOP(=O)(OCC)C(C(=O)OC)C(=O)C(=O)Nc1ccc(Cl)cc1Cl (configuration not stated)	> 100 µM (inactive)	> 100 µM (inactive)	> 100 µM (inactive)	> 100 µM (inactive)	> 100 µM (inactive)	> 100 µM	> 100 µM (inactive)	> 100 µM (inactive)	> 100 µM (inactive)	> 100 µM (inactive)	> 100 µM (inactive)	> 100 µM (inactive)	> 100 µM (inactive)	> 100 µM (inactive)	> 100 µM (inactive)	> 100 µM (inactive)	> 100 µM (inactive)	> 100 µM (inactive)
